# Reference: paper PMC6688371, “Effect of the inhaled PDE4 inhibitor CHF6001 on biomarkers of inflammation in COPD” (Respiratory Research, 2019)
# Key:
# [1] = test system: markers of inflammation in blood; test: Markers of inflammation in blood (serum/plasma); type: in vivo, human; conditions: Day 32, geometric mean (%CV)
# Procedure: Induced sputum was collected pre-dose on Day 1 of each treatment period (for the first treatment period, the sample could be collected up to 10 days prior to Day 1), and 2 h post-dose on Days 20, 26 and 32 (see the Additional file 1 for further detail on sputum and blood analysis methods). Blood samples were taken pre-dose on Day 1, and pre-dose and at 30 min, and 1, 1.5, 2, 3, 4, 6, 8 and 12 h post-dose on Day 32. Other pre-dose assessments on Days 1 and 32 were spirometry (forced expiratory volume in 1 s [FEV1] and forced vital capacity [FVC]), forced oscillometry, and COPD Assessment Test (CAT), with Baseline Dyspnea Index recorded on Day 1 and Transition Dyspnea Index (TDI) on Day 32. Central and peripheral airways mechanics were assessed using forced oscillometry, with the following values determined: inspiratory and expiratory resistance (at 5 and 19 Hz), inspiratory and expiratory reactance, tidal expiratory flow limitation and the percentage of flow limited breaths.
# (§1) A patient had to have a minimum of one acceptable sputum sample on Day 20, 26 or 32 to be included in the sputum biomarker evaluation for that treatment period, with the available cell count and biomarker data averaged for each patient. The mean change from baseline (pre-dose on Day 1 of each treatment period) was then compared between treatments using an analysis of covariance (ANCOVA) that included treatment, patient and period as fixed effects, and baseline values as covariate. The mean change from baseline to Day 32 for biomarkers in blood were analysed using the same model as for sputum data. All data were log-transformed before analysis, and the results are presented as ratio of geometric means.
# Effect of CHF6001 on inflammatory biomarkers – Additional file 1 […]
# (§2) Analysis of biomarkers and CHF6001 concentration in blood
# (§3) The levels of inflammatory biomarkers were evaluated from blood collected at 2 h post-dose […]
# • Ex-vivo lipopolysaccharide (LPS) stimulated TNFα: 1.5 mL of blood collected into sodium heparin tubes was stimulated with 30 µL of LPS 5 µg/mL, incubated at 37C for 23 h, centrifuged at 2000 g for 10 min at 4C and plasma transferred to the central laboratory at –60 to –90C for analysis.
# • Fibrinogen and MMP-3 and -9: Blood was collected into lithium heparin tubes, centrifuged at 2500 g for 15 min at 4C, and plasma transferred to the central […]
# • IL-6, -16, and -18, CXCL8, TNFα, MCP-1, MIP 1β, club cell secretory protein 16 (CC16), C-reactive protein (CRP) and surfactant protein D (SP-D): Blood was collected into serum separator tubes and kept at room temperature for 30 –60 minutes to allow clotting. Samples were then centrifuged at 2000 g for 5 min at +4C and serum transferred to the central laboratory at –60 to –90C for analysis.
# Levels of biomarkers were assessed as follows:
# • Fibrinogen: K-Assay Fibrinogen kit, automated on the Beckman AU640 .
# • IL-18, and MMP-3 and -9: PheraSTAR ELISA.
# • IL-6, CXCL8, TNFα, MCP-1 and MIP-1β: Meso Scale Diagnostics v -PLEX Plus kit .
# • CC16: Biovendor Elisa Kit, Oxford Biosystems.
# • CRP: Randox Reagents, automated on the Beckman AU640 .
# • IL-16: Meso Scale Diagnostics Sector Imager 6000.
# • Serum SP-D: Sandwich Immunoassay, using PheraSTAR Plate Reader .
# Validation procedures again followed those outlined for the analysis of biomarkers above. All […]
# concentrations of biomarkers in human serum or plasma from regulatory studies.
# Blood for the pharmacokinetic analysis was collected pre-dose and at 30 min, and 1, 1.5, 2, 3, 4, 6, 8 and 12 h post-dose on Day 32 of each treatment period. Samples were centrifuged at 2000 g for 15 min at 4C, with the resulting plasma shipped to the central laboratory at –60
# [2] = Stability of CHF6001 in human sputum samples (bioanalytical validation); type: in vitro ADME
# Procedure: Effect of CHF6001 on inflammatory biomarkers – Additional file 1
# Approximately 80 to 100 cells were to be counted per square , with the number of live leukocytes, dead leukocytes and squamous cells counted.
# To determine differential cell counts, the sputum cell suspension was adjusted with Dulbecco's Phosphate -Buffered Saline to give 0.5x10^6 cells/mL. A total of 75 µL was used to prepare a cytoslide, which was then centrifuged at 450 rpm for 6 min and allowed to air dry for a minimum of 30 min before being fixed with methanol for 10 min. Four slides were prepared for each sample.
# Only one of the sputum samples induced at 2 h post-dose on Days 20, 26 or 32 was used to evaluate CHF6001 concentration, with the evaluation performed only if a minimum of 300 mg of residual sputum remained. Approximately 30 mg of sputum plug was transferred to a polypropylene cryotube, and was shipped in an upright position at –80C to a central laboratory for analysis. The concentration of CHF6001 was evaluated using a LC-MS/MS method following solid phase extraction. Validation procedures were the same as those listed above for biomarkers. […]
# over the calibration range of 30 to 20,000 ng/mL. The precision and accuracy of the method […]
# 30 ng/mL and within 15% at all other concentrations. No significant matrix effects were […]
# temperature (nominally +22C), after storage for 93 days in a freezer set at –80C and after four freeze-thaw cycles at nominally –80C / +22C. The method was considered to be suitable for measuring concentrations of CHF6001 in human sputum samples from […]
# as §2
# The levels of inflammatory biomarkers were evaluated from blood collected at 2 h post-dose
# TNFα = test: Ex-vivo lipopolysaccharide (LPS) stimulated TNFα in whole blood; set-up: species or system human; conditions: Day 32, geometric mean (%CV)
# Source text: as §1, with “means. […]” for “means.”
# Approximately 80 to 100 cells were to be counted per square , with the number of live leukocytes, dead leukocytes and squamous cells counted. […]
# Only one of the sputum samples induced at 2 h post-dose on Days 20, 26 or 32 was used to evaluate CHF6001 concentration, with the evaluation performed only if a minimum of 300 mg of residual sputum remained. […] The concentration of CHF6001 was evaluated using a LC-MS/MS method following solid phase extraction. […]
# as §3
# Levels of biomarkers were assessed as follows: […]
# • Serum SP-D: Sandwich Immunoassay, using PheraSTAR Plate Reader . […]
smiles,measurement,setting,value
CS(=O)(=O)Nc1ccc(C(=O)O[C@@H](Cc2c(Cl)c[n+]([O-])cc2Cl)c2ccc(OC(F)F)c(OCC3CC3)c2)cc1OCC1CC1 [CHF6001],"C-X-C motif chemokine ligand 8 in blood, post-baseline",[1]; 800 µg BID,13.565 (36.9)
same,"C-reactive protein in blood, post-baseline",[1]; 800 µg BID,3.4462 (167.3) mg/L
same,"Club cell secretory protein 16 in blood, post-baseline",[1]; 800 µg BID,4.6249 (67.5) ng/mL
same,"Fibrinogen in blood, post-baseline",[1]; 800 µg BID,327.0 (47.5) mg/dL
same,"Interleukin 6 in blood, post-baseline",[1]; 800 µg BID,1.8740 (63.9) pg/mL
same,"Interleukin 16 in blood, post-baseline",[1]; 800 µg BID,183.95 (33.6) pg/mL
same,"Interleukin 18 in blood, post-baseline",[1]; 800 µg BID,236.46 (43.0) pg/mL
same,"Macrophage inflammatory protein 1β in blood, post-baseline",[1]; 800 µg BID,107.36 (35.2) pg/mL
same,"Matrix metalloproteinase 3 in blood, post-baseline",[1]; 800 µg BID,19.356 (66.9) ng/mL
same,"Matrix metalloproteinase 9 in blood, post-baseline",[1]; 800 µg BID,61.69 (88.4) ng/mL
same,"Monocyte chemotactic protein 1 in blood, post-baseline",[1]; 800 µg BID,308.2 (33.3) pg/mL
same,"Serum surfactant protein D, post-baseline",[1]; 800 µg BID,168.55 (67.6) ng/mL
same,"Tumour necrosis factor α in serum, post-baseline",[1]; 800 µg BID,1.9453 (31.8) pg/mL
same,"C-X-C motif chemokine ligand 8 in blood, post-baseline",[1]; 1600 µg BID,13.014 (42.2)
same,"C-reactive protein in blood, post-baseline",[1]; 1600 µg BID,3.7389 (135.5) mg/L
same,"Club cell secretory protein 16 in blood, post-baseline",[1]; 1600 µg BID,4.5701 (75.3) ng/mL
same,"Fibrinogen in blood, post-baseline",[1]; 1600 µg BID,367.8 (54.2) mg/dL
same,"Interleukin 6 in blood, post-baseline",[1]; 1600 µg BID,1.9386 (88.8) pg/mL
same,"Interleukin 16 in blood, post-baseline",[1]; 1600 µg BID,178.08 (30.4) pg/mL
same,"Interleukin 18 in blood, post-baseline",[1]; 1600 µg BID,252.43 (40.2) pg/mL
same,"Macrophage inflammatory protein 1β in blood, post-baseline",[1]; 1600 µg BID,113.88 (44.2) pg/mL
same,"Matrix metalloproteinase 3 in blood, post-baseline",[1]; 1600 µg BID,19.565 (53.9) ng/mL
same,"Matrix metalloproteinase 9 in blood, post-baseline",[1]; 1600 µg BID,52.19 (89.7) ng/mL
same,"Monocyte chemotactic protein 1 in blood, post-baseline",[1]; 1600 µg BID,323.6 (31.8) pg/mL
same,"Serum surfactant protein D, post-baseline",[1]; 1600 µg BID,167.66 (66.1) ng/mL
same,"Tumour necrosis factor α in serum, post-baseline",[1]; 1600 µg BID,1.9302 (35.7) pg/mL
same,Storage time found stable in sputum,[2]; freezer set at –80C,93 days
same,Freeze-thaw cycles found stable in sputum,[2]; nominally –80C / +22C,four
same,Time found stable in sputum,[2]; sample processing temperature (nominally +22C),up to 24 h
same,"Tumour necrosis factor α ex-vivo, post-baseline",TNFα; 800 µg BID,2096.916 (177.0) pg/mL
same,"Tumour necrosis factor α ex-vivo, post-baseline",TNFα; 1600 µg BID,1750.418 (192.0) pg/mL
